The results in this text go back to patent US10428028B2, “HDAC inhibitors” (BIOMARIN PHARMACEUTICAL INC., priority 2013, dated 2019).

A value given as a limit tells only on which side of the number the result lay.

The subject of test [1] is GM 15850 (lymphoblastoid cells line) cells. The experiment in a line: In-cell deacetylase inhibition assay (DAC assay). The test is classed as cell-based. The following applies: Homo sapiens, GM15850; GM 15850 cells, 4 h incubation. As to the method: GM 15850 (lymphoblastoid cells line) cells were seeded in 96-well plates at an appropriate density (100,000 cells/well) in 90 μL, RPMI1640 medium containing 10% v/v fetal bovine serum (FBS), 1% v/v penicillin/streptomycin, and 1% v/v L-glutamine. Compound dilutions were made in 100% DMSO followed by parallel dilution in media with 2% DMSO. 10 μl of the compound dilutions were added to the cells to achieve the desired concentrations. The final concentration of DMSO in each well was 0.2%. The cells were incubated for 4 h at 37° C. with 5% CO2. After incubation, the cells were centrifuged down and the supernatant was removed. The cell pellets were washed with 100 μL, phosphate-buffered saline (PBS) and then lysed with 45 μL, lysis buffer (HDAC assay buffer at pH 8.0 (25 mM Tris/HCl, 137 mM NaCl, 2.7 mM KCl, 1 mM MgCl2)+1% v/v Igepal CA-630). To initiate the reaction, the HDAC substrate KI-104 (Enzo Life Sciences, Farmingdale, N.Y.) was added to a final concentration of 50 μM. The reaction was stopped after 30 min incubation by addition of 50 μL, developer (6 mg/mL trypsin in HDAC assay buffer). The reaction was allowed to develop for 30 min at room temperature and the fluorescence signal was detected using a fluorometer (Spectramax M2, Molecular Devices, Sunnyvale, Calif.) with excitation and emission wavelengths of 360 nm and 470 nm respectively. The data was fitted to a sigmoidal dose response equation with variable slope in GraphPad Prism 5.0 (GraphPad Software, La Jolla, Calif.) to determine IC50. Bottom and top of the curve were fixed to the average fluorescence response of control wells with no cells and cells but no compound respectively. IC50's are reported in Table 5, where A stands for IC50 less than 1 μM, B between 1 and 5 μM, C from 5 to 10 μM, D from 10 to 20 μM, and IA for IC50 above 20 μM.

The target in test [2] is HDAC1 (Homo sapiens (Human), UniProt Q13547). In words: HDAC enzyme inhibition assay (Fluor-de-Lys), HDAC1. The following applies: 2 hours pre-incubation. The test is classed as biochemical. As to the method:
(§1) The HDAC activity inhibition assay was performed as follows to determine the ability of a test compound to inhibit HDAC enzymatic activity. Serial dilutions of HDAC inhibitors were prepared in HDAC assay buffer (25 mM Tris/HCl, pH 8.0, 137 mM NaCl, 2.7 mM KCl, 1 mM MgCl2, pH 8) in 96-well assay plates (Fisher scientific, #07-200-309) and were pre-incubated for 2 hours at room temperature in the presence of 125 μg/ml BSA and purified HDAC1 (BPS Bioscience, San Diego, Calif., #50051), HDAC2 (BPS Bioscience, #50053), or HDAC3/NcoR2 (BPS Bioscience, #50003) at concentrations of 1.25, 1.32, and 0.167 μg/mL, respectively. Following pre-incubation, Fluor-de-Lys™ substrate (Enzo Life Sciences, Plymouth Meeting, Pa., BML-KI104-0050) was added to a final concentration of 10 μM and plates were further incubated for 30 minutes at room temperature. The enzymatic reaction was stopped by addition of Trichostatin A (Sigma-Aldrich, St Louis, Mo., #T8552, final concentration: 100 nM) and trypsin (MP Biomedicals, Solon, Ohio, #02101179) was added to reach a final concentration of 100 μg/mL. After a 15 minute incubation at room temperature, fluorescence was recorded using a Spectramax M2 fluorometer (Molecular Devices, Sunnyvale, Calif.) with excitation at 365 nm and emission at 460 nm. IC50 values were calculated by using a sigmoidal dose-response (variable slope) equation in GraphPad Prism® 5 for Windows (GraphPad Software, La Jolla, Calif.). Results for selected compounds in the HDAC activity inhibition assay are presented in Table 5 (IC50 ranges: IA>20 μM, A<1 μM, 1<B<5 μM, 5<C<10 μM, 10<D<20 μM, ND: not determined).

For test [3], the target named is HDAC3/NcoR2 (Homo sapiens (Human), UniProt O15379). In words: HDAC enzyme inhibition assay (Fluor-de-Lys), HDAC3/NcoR2. The format is biochemical. As to conditions: HDAC3/NcoR2, 2 hours pre-incubation. As to the method:
as §1

Sequence of HDAC3/NcoR2 (O15379 whole entry): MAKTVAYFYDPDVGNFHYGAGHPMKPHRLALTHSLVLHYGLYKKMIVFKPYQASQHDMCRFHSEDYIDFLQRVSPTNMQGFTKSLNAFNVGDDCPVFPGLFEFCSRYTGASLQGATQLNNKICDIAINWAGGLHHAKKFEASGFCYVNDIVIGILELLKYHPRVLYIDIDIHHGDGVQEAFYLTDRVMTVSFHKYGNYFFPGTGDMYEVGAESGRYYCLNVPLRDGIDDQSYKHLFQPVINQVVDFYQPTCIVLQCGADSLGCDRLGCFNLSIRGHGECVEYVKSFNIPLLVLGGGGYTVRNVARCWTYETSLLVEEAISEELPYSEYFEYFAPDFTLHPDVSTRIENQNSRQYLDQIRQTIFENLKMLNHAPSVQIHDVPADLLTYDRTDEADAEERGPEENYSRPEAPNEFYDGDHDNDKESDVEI
Sequence of HDAC3/NcoR2 (Q9Y618 395-489 partner): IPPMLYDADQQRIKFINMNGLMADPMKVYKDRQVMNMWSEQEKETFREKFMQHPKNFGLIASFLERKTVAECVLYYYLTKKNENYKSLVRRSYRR
Sequence of HDAC1 (Q13547 whole entry): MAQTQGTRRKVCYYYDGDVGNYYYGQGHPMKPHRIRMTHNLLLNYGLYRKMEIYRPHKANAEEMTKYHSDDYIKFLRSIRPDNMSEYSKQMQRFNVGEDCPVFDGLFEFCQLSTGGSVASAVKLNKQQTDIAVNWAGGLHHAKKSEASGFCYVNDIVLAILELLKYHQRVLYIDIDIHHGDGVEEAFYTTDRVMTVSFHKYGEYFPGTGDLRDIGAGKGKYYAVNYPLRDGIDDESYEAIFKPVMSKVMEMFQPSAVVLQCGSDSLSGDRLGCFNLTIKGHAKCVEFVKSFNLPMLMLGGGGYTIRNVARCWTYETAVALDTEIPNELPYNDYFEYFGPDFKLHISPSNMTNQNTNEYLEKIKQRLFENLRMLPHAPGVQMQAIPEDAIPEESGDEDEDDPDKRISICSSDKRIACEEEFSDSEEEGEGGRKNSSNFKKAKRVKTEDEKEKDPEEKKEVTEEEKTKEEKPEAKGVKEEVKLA

Turning to `Nc1ccccc1NC(=O)c1ccc2c(cnn2Cc2cccnc2)c1` [Compound A1], the IC50 in test [1], in test [2] and in test [3] was < 1000 nM each time.

Consider `Nc1ccccc1NC(=O)c1ccc2c(cnn2Cc2ccccc2)c1` [Compound A2], for which the IC50 in test [1], in test [2] and in test [3] was < 1000 nM each time.

For the compound `Cn1cc(Cn2ncc3cc(C(=O)Nc4ccccc4N)ccc32)cn1` [Compound A3], the IC50 in test [1], in test [2] and in test [3] was < 1000 nM throughout.

With `Nc1ccccc1NC(=O)c1ccc2c(cnn2Cc2cncc(F)c2)c1` [Compound A4, N-(2-aminophenyl)-1-((5-fluoropyridin-3-yl)methyl)-1H-indazole-5-carboxamide], the IC50 in test [1], in test [2] and in test [3] was < 1000 nM throughout.

Regarding `Cc1ccc(Cn2ncc3cc(C(=O)Nc4ccccc4N)ccc32)c(C)n1` [Compound A5], the IC50 in test [1], in test [2] and in test [3] was < 1000 nM throughout.

Turning to `Nc1cc(F)ccc1NC(=O)c1ccc2c(cnn2Cc2cccnc2)c1` [Compound A6], the IC50 was 1000 to 5000 nM in test [1], < 1000 nM in test [2] and < 1000 nM in test [3].

For `Nc1cc(F)ccc1NC(=O)c1ccc2c(cnn2Cc2cncc(F)c2)c1` [Compound A7], the IC50 is 1000 to 5000 nM in test [1], < 1000 nM in test [2] and < 1000 nM in test [3].

For the compound `Cc1ccc(Cn2ncc3cc(C(=O)Nc4ccc(F)cc4N)ccc32)c(C)n1` [Compound A8], the IC50 in test [1] is 1000 to 5000 nM; in test [2], < 1000 nM; in test [3] it was < 1000 nM.

Turning to `Nc1ccccc1NC(=O)c1ccc2c(cnn2Cc2ccc(F)c(F)c2)c1` [Compound A9], the IC50 in test [2] and in test [3] was < 1000 nM throughout.

Take `Nc1cc(F)ccc1NC(=O)c1ccc2c(cnn2CC2CC2)c1` [Compound A12]: the IC50 in test [1] is > 20000 nM; in test [2], 1000 to 5000 nM; in test [3], < 1000 nM.

On to `Nc1ccccc1NC(=O)c1ccc2nn(Cc3cccnc3)cc2c1` [Compound A13], for which the IC50 in test [1], in test [2] and in test [3] was < 1000 nM each time.

In the case of `Nc1ccccc1NC(=O)c1ccc2nn(Cc3cncc(F)c3)cc2c1` [Compound A14, N-(2-aminophenyl)-2-((5-fluoropyridin-3-yl)methyl)-2H-indazole-5-carboxamide], the IC50 in test [1], in test [2] and in test [3] was < 1000 nM throughout.

Consider `Cc1ccc(Cn2cc3cc(C(=O)Nc4ccccc4N)ccc3n2)c(C)n1` [Compound A15], for which the IC50 in test [1], in test [2] and in test [3] was < 1000 nM throughout.
